This assay has as its target PLK1 (Homo sapiens, UniProt P53350). Put plainly: PLK1 Inhibition Assay I (radioactive-phosphate incorporation). It is filed as biochemical. The following applies: Ki(app); PLK1 Inhibition Assay I or II (table does not say which). The protocol:
The compounds of the present invention are evaluated as inhibitors of human PLK kinase using the following assays.
Compounds were screened for their ability to inhibit PLK1 using a radioactive-phosphate incorporation assay. Assays were carried out in a mixture of 25 mM HEPES (pH 7.5), 10 mM MgCl2, and 1 mM DTT. Final substrate concentrations were 350 μM [γ-33P]ATP (136 mCi 33P ATP/mmol ATP, Amersham Pharmacia Biotech/Sigma Chemicals) and 450 μM peptide (KKKISDELMDATFADQEAK) [SEQ. ID:1]. Assays were carried out at 25° C. in the presence of 2 nM PLK1. An assay stock buffer solution was prepared containing all of the reagents listed above, with the exception of ATP and the test compound of interest. 30 μL of the stock solution was placed in a 96 well plate followed by addition of 2 μL of DMSO stock containing serial dilutions of the test compound (typically starting from a final concentration of 10 μM with 2-fold serial dilutions) in duplicate (final DMSO concentration 5%). The plate was pre-incubated for 10 minutes at 25° C. and the reaction initiated by addition of 8 μL [γ-33P]ATP (final concentration 350 μM).
The reaction was stopped after 240 minutes by the addition of 100 μL 0.14M phosphoric acid. A multiscreen phosphocellulose filter 96-well plate (Millipore, Cat No. MAPHN0B50) was pretreated with 100 μL 0.1 M phosphoric acid prior to the addition of 125 μL of the stopped assay mixture. The plate was washed with 4×200 μL 0.1 M phosphoric acid. After drying, 100 μL Optiphase ‘SuperMix’ liquid scintillation cocktail (Perkin Elmer) was added to the well prior to scintillation counting (1450 Microbeta Liquid Scintillation Counter, Wallac).
After removing mean background values for all of the data points, Ki(app) data were calculated from non-linear regression analysis of the initial rate data using the Prism software package (GraphPad Prism version 3.0cx for Macintosh, GraphPad Software, San Diego Calif., USA).

Chain of PLK1 (P53350 whole entry): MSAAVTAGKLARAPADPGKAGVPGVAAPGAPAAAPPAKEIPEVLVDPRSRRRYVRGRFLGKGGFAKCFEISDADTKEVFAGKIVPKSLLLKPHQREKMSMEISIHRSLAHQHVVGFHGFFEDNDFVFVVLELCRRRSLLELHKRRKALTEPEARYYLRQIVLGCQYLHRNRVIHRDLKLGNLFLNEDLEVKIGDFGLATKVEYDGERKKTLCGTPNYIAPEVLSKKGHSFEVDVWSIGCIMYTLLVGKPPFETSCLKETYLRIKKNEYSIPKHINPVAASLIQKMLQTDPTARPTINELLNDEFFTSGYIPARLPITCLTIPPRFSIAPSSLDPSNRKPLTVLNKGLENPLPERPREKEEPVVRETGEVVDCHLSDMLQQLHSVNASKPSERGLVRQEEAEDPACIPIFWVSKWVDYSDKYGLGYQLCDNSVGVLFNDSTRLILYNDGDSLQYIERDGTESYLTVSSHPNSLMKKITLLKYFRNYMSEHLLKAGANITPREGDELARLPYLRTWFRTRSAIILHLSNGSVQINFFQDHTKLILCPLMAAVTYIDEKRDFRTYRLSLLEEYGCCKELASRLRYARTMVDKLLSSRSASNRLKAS

On to `N#Cc1cnc(NCC2CCOCC2)nc1-c1c[nH]c2ncc(C(F)(F)F)cc12` [Compound I-57, 2-((tetrahydro-2H-pyran-4-yl)methylamino)-4-(5-(trifluoromethyl)-1H-pyrrolo[2,3-b]pyridin-3-yl)pyrimidine-5-carbonitrile], for which the Ki is 0.003 to 0.04 µM.

Regarding `CC(C)[C@@H](CO)Nc1ncc(C#N)c(-c2c[nH]c3ncc(C(F)(F)F)cc23)n1` [Compound I-58, 2-((S)-1-hydroxy-3-methylbutan-2-ylamino)-4-(5-(trifluoromethyl)-1H-pyrrolo[2,3-b]pyridin-3-yl)pyrimidine-5-carbonitrile], the Ki was 0.003 to 0.04 µM.

For `CN(C)c1ccc(CNc2ncc(C#N)c(-c3c[nH]c4ncc(C(F)(F)F)cc34)n2)cc1` [Compound I-59, 2-(4-(dimethylamino)benzylamino)-4-(5-(trifluoromethyl)-1H-pyrrolo[2,3-b]pyridin-3-yl)pyrimidine-5-carbonitrile], the Ki lay in the range of 0.003 to 0.04 µM.

With `Cc1ccc(C)c(CNc2ncc(C#N)c(-c3c[nH]c4ncc(C(F)(F)F)cc34)n2)c1` [Compound I-60, 2-(2,5-dimethylbenzylamino)-4-(5-(trifluoromethyl)-1H-pyrrolo[2,3-b]pyridin-3-yl)pyrimidine-5-carbonitrile], the Ki was 0.003 to 0.04 µM.

In the case of `C[C@@H](Nc1ncc(C#N)c(-c2c[nH]c3ncc(C(F)(F)F)cc23)n1)C1CCCCC1` [Compound I-61, 2-((R)-1-cyclohexylethylamino)-4-(5-(trifluoromethyl)-1H-pyrrolo[2,3-b]pyridin-3-yl)pyrimidine-5-carbonitrile], the Ki was under 0.003 µM.

Regarding `N#Cc1cnc(NCc2ccc3c(c2)CCO3)nc1-c1c[nH]c2ncc(C(F)(F)F)cc12` [Compound I-62, 2-((2,3-dihydrobenzofuran-5-yl)methylamino)-4-(5-(trifluoromethyl)-1H-pyrrolo[2,3-b]pyridin-3-yl)pyrimidine-5-carbonitrile], the Ki is 0.003 to 0.04 µM.

`CN1CCC(Nc2ncc(C#N)c(-c3c[nH]c4ncc(C(F)(F)F)cc34)n2)CC1` [Compound I-63, 2-(1-methylpiperidin-4-ylamino)-4-(5-(trifluoromethyl)-1H-pyrrolo[2,3-b]pyridin-3-yl)pyrimidine-5-carbonitrile]: the Ki lay in the range of 0.003 to 0.04 µM.

For the compound `N#Cc1cnc(NCc2ccccn2)nc1-c1c[nH]c2ncc(C(F)(F)F)cc12` [Compound I-64, 2-(pyridin-2-ylmethylamino)-4-(5-(trifluoromethyl)-1H-pyrrolo[2,3-b]pyridin-3-yl)pyrimidine-5-carbonitrile], the Ki was over 0.04 µM.

As to `N#Cc1cnc(N[C@@H]2CC3CC[C@@H]2C3)nc1-c1c[nH]c2ncc(C(F)(F)F)cc12` [Compound I-65, 2-((1R,2R)-bicyclo[2.2.1]heptan-2-ylamino)-4-(5-(trifluoromethyl)-1H-pyrrolo[2,3-b]pyridin-3-yl)pyrimidine-5-carbonitrile], the Ki was in the range of 0.003 to 0.04 µM.

Take `CCNc1ncc(C#N)c(-c2c[nH]c3ncc(C(F)(F)F)cc23)n1` [Compound I-66, 2-(ethylamino)-4-(5-(trifluoromethyl)-1H-pyrrolo[2,3-b]pyridin-3-yl)pyrimidine-5-carbonitrile]: the Ki is over 0.04 µM.

In the case of `N#Cc1cnc(NCCC2CCCCN2)nc1-c1c[nH]c2ncc(C(F)(F)F)cc12` (centres unmarked) [Compound I-68, 2-(2-(piperidin-2-yl)ethylamino)-4-(5-(trifluoromethyl)-1H-pyrrolo[2,3-b]pyridin-3-yl)pyrimidine-5-carbonitrile], the Ki is over 0.04 µM.

With `N#Cc1cnc(NCCN2CCOCC2)nc1-c1c[nH]c2ncc(C(F)(F)F)cc12` [Compound I-69, 2-(2-morpholinoethylamino)-4-(5-(trifluoromethyl)-1H-pyrrolo[2,3-b]pyridin-3-yl)pyrimidine-5-carbonitrile], the Ki was over 0.04 µM.

In the case of `N#Cc1cnc(NCCCN2CCOCC2)nc1-c1c[nH]c2ncc(C(F)(F)F)cc12` [Compound I-70, 2-(3-morpholinopropylamino)-4-(5-(trifluoromethyl)-1H-pyrrolo[2,3-b]pyridin-3-yl)pyrimidine-5-carbonitrile], the Ki is over 0.04 µM.

`N#CCNc1ncc(C#N)c(-c2c[nH]c3ncc(C(F)(F)F)cc23)n1` [Compound I-71, 2-(cyanomethylamino)-4-(5-(trifluoromethyl)-1H-pyrrolo[2,3-b]pyridin-3-yl)pyrimidine-5-carbonitrile]: the Ki is over 0.04 µM.

On to `CC(=O)Nc1ccc(CNc2ncc(C#N)c(-c3c[nH]c4ncc(C(F)(F)F)cc34)n2)cc1` [Compound I-72, N-(4-((5-cyano-4-(5-(trifluoromethyl)-1H-pyrrolo[2,3-b]pyridin-3-yl)pyrimidin-2-ylamino)methyl)phenyl)acetamide], for which the Ki fell in the range of 0.003 to 0.04 µM.

As to `N#Cc1cnc(NC2CCCC2)nc1-c1c[nH]c2ncc(C(F)(F)F)cc12` [Compound I-73, 2-(cyclopentylamino)-4-(5-(trifluoromethyl)-1H-pyrrolo[2,3-b]pyridin-3-yl)pyrimidine-5-carbonitrile], the Ki lay in the range of 0.003 to 0.04 µM.

For `N#Cc1cnc(NC2CCOCC2)nc1-c1c[nH]c2ncc(C(F)(F)F)cc12` [Compound I-74, 2-(tetrahydro-2H-pyran-4-ylamino)-4-(5-(trifluoromethyl)-1H-pyrrolo[2,3-b]pyridin-3-yl)pyrimidine-5-carbonitrile], the Ki fell in the range of 0.003 to 0.04 µM.

Turning to `N#Cc1cnc(NC(CO)c2ccccc2)nc1-c1c[nH]c2ncc(C(F)(F)F)cc12` (centres unmarked) [Compound I-75, 2-(2-hydroxy-1-phenylethylamino)-4-(5-(trifluoromethyl)-1H-pyrrolo[2,3-b]pyridin-3-yl)pyrimidine-5-carbonitrile], the Ki was in the range of 0.003 to 0.04 µM.

For the compound `N#Cc1cnc(NC2CC2)nc1-c1c[nH]c2ncc(C(F)(F)F)cc12` [Compound I-76, 2-(cyclopropylamino)-4-(5-(trifluoromethyl)-1H-pyrrolo[2,3-b]pyridin-3-yl)pyrimidine-5-carbonitrile], the Ki is over 0.04 µM.

As for `CC[C@H](C)Nc1ncc(C#N)c(-c2c[nH]c3ncc(C(F)(F)F)cc23)n1` [Compound I-77, 2-(sec-butylamino)-4-(5-(trifluoromethyl)-1H-pyrrolo[2,3-b]pyridin-3-yl)pyrimidine-5-carbonitrile], the Ki lay in the range of 0.003 to 0.04 µM.

Turning to `N#Cc1cnc(N[C@H]2CCOC2)nc1-c1c[nH]c2ncc(C(F)(F)F)cc12` [Compound I-78, 2-((S)-tetrahydrofuran-3-ylamino)-4-(5-(trifluoromethyl)-1H-pyrrolo[2,3-b]pyridin-3-yl)pyrimidine-5-carbonitrile], the Ki was 0.003 to 0.04 µM.

Regarding `C#CCNc1ncc(C#N)c(-c2c[nH]c3ncc(C(F)(F)F)cc23)n1` [Compound I-79, 2-(prop-2-ynylamino)-4-(5-(trifluoromethyl)-1H-pyrrolo[2,3-b]pyridin-3-yl)pyrimidine-5-carbonitrile], the Ki is over 0.04 µM.

For `N#Cc1cnc(NCCCn2ccnc2)nc1-c1c[nH]c2ncc(C(F)(F)F)cc12` [Compound I-80, 2-(3-(1H-imidazol-1-yl)propylamino)-4-(5-(trifluoromethyl)-1H-pyrrolo[2,3-b]pyridin-3-yl)pyrimidine-5-carbonitrile], the Ki is over 0.04 µM.

Regarding `N#Cc1cnc(NC[C@H]2CC[C@@H](O)C2)nc1-c1c[nH]c2ncc(C(F)(F)F)cc12` [Compound I-81, 2-(((1S,3R)-3-hydroxycyclopentyl)methylamino)-4-(5-(trifluoromethyl)-1H-pyrrolo[2,3-b]pyridin-3-yl)pyrimidine-5-carbonitrile], the Ki was in the range of 0.003 to 0.04 µM.

Turning to `COCC(C)Nc1ncc(C#N)c(-c2c[nH]c3ncc(C(F)(F)F)cc23)n1` (centres unmarked) [Compound I-82, 2-(1-methoxypropan-2-ylamino)-4-(5-(trifluoromethyl)-1H-pyrrolo[2,3-b]pyridin-3-yl)pyrimidine-5-carbonitrile], the Ki is 0.003 to 0.04 µM.

As for `CC[C@@H](C)Nc1ncc(C#N)c(-c2c[nH]c3ncc(C(F)(F)F)cc23)n1` [Compound I-83, 2-(sec-butylamino)-4-(5-(trifluoromethyl)-1H-pyrrolo[2,3-b]pyridin-3-yl)pyrimidine-5-carbonitrile], the Ki is under 0.003 µM.

As to `COc1ccc(C(C)Nc2ncc(C#N)c(-c3c[nH]c4ncc(C(F)(F)F)cc34)n2)cc1Cl` (centres unmarked) [Compound I-84, 2-(1-(3-chloro-4-methoxyphenyl)ethylamino)-4-(5-(trifluoromethyl)-1H-pyrrolo[2,3-b]pyridin-3-yl)pyrimidine-5-carbonitrile], the Ki was under 0.003 µM.

Consider `N#Cc1cnc(NCCC2CCCN2)nc1-c1c[nH]c2ncc(C(F)(F)F)cc12` (centres unmarked) [Compound I-85, 2-(2-(pyrrolidin-2-yl)ethylamino)-4-(5-(trifluoromethyl)-1H-pyrrolo[2,3-b]pyridin-3-yl)pyrimidine-5-carbonitrile], for which the Ki was over 0.04 µM.

Turning to `N#Cc1cnc(NCCN2CCSCC2)nc1-c1c[nH]c2ncc(C(F)(F)F)cc12` [Compound I-86, 2-(2-thiomorpholinoethylamino)-4-(5-(trifluoromethyl)-1H-pyrrolo[2,3-b]pyridin-3-yl)pyrimidine-5-carbonitrile], the Ki is over 0.04 µM.

These data come from patent US8530489B2 (Vertex Pharmaceuticals Incorporated, priority 2006, dated 2013).
